According to patent publication US8628961B2, “Small molecule antagonists of phosphatidylinositol-3,4,5-triphosphate (PIP3) and uses thereof” (Tufts University, priority 2010, dated 2014):

What was measured:
PI3K-PDK1-Akt signaling = PI3K-PDK1-Akt signaling in growth factor-stimulated SUM159 cells; type: cell-based, human
PLC-δ PH domain = PLC-δ PH domain (Homo sapiens (Human), UniProt P51178); assay: FP PIP2/PLC-δ PH domain binding assay; conditions: FIG. 5
Procedure: FIG. 5 is a graph depicting specificity and concentration-dependent competitive inhibition of PIP3-PH domain interaction by PIT-1 and PIT-2. 15 nM TMR-conjugated PIP2 were incubated with 100 nM PLC-δ PH domain in the presence or absence of the indicated concentrations of PITs (0-200 μM) for 30 min, followed by FP measurement.
In order to identify compounds that disrupt the interaction between PIP3 and PH domains, a high-throughput fluorescence polarization (FP)-binding assay was developed using recombinant 1-123 amino acid N-terminal fragment of human Akt1 (also referred to herein simply as Akt), encompassing the PH domain (PH123 protein), and fluorescent NBD-labeled PIP3 molecule. The amino acid sequence of human Akt1 is publicly available as, for example, GenBank Accession No. NP_001014432.1 (SEQ ID NO:1), and the corresponding DNA sequence is publicly available as, for example, GenBank Accession No. NM_001014432. Briefly, 5 μM recombinant GST fusion proteins containing 1-123 a.a. N-terminal fragment of human Akt1 (PH 123) or 100 nM 441-551 a.a. region of human PDK1 were incubated with 15 nM TMR-labeled PIP3, PIP2, or PIP5 in buffer containing 50 mM Tris-HCl (pH 7.5), 150 mM NaCl, and 5 mM b-ME for 15 min at room temperature in the dark. FP values were determined using Wallac Victor 3 plate reader. […]

SUM159 cells = assay: Actin polymerization and ruffling/lamellipodia formation after PDGF; type: cell-based, human; conditions: SUM159, concentration-dependent
Procedure: In one set of experiments, the ability of PITs to inhibit actin polymerization and ruffling/lamellipodia formation was examined in SUM159 cells. Cells were serum starved and treated with PITs (25, 50 100 μM) or PIT-1 is (100 μM) for 8 hr, followed by PDGF (100 ng/ml) stimulation for 15 min. Cells were fixed and stained with TRITC-phalloidin to visualize actin fibers, followed by fluorescent microscopy analysis. The number of cells with ruffles/lamellipodia was counted in five random fields.

Bcl-xL = Bcl-xL (Homo sapiens (Human), UniProt Q07817); assay: NMR HSQC specificity control; type: binding
[1] = Cell death under glucose/glutamine deprivation; type: cell-based
eIF-1 = eIF-1 (Homo sapiens (Human), UniProt P41567); assay: NMR HSQC specificity control; type: binding
[2] = tested on: Bax/Bak double knockout cells; assay: Cell killing in Bax/Bak double knockout versus wild-type cells; type: cell-based, mouse
Procedure: Human and mouse cancer cell lines (U87MG, SUM159, A549, MDA-MB-231, 4T1, B16-F10) and human umbilical vein endothelial cells (HUVEC) were purchased from the American Type Culture Collection (Rockville, Md., USA). Mouse adult lung fibroblasts (Akt-deficient and Akt1-expressing) were a generous gift of Dr. Philip Tsichlis (Tufts University). Maroulakou I et al. (2007) Cancer Res 67:167-77. Bax/Bak double knockout mouse embryonic fibroblasts (Wei M C et al. (2001) Science 292:727-30) and matched wild-type cells were a generous gift of Dr. Stanley Korsmeyer (Dana-Farber Cancer Center). B16-F10, U87MG, 4T1, A549, MDA-MB-231 and fibroblast cells were cultured in DMEM medium with 10% fetal bovine serum (FBS). SUM159 was maintained in Ham's F-12 medium with 5% FBS, 5 μg/ml insulin, and 1 μg/ml hydrocortisone. HUVEC cells were cultured in M199 medium with 20% FBS, 20 μg/ml ECGS, and 50 μg/ml heparin. All media were supplemented with 100 units/ml penicillin, 100 μg/ml streptomycin, and 2 mM glutamine. All cells were cultured in a humidified atmosphere of 95% air and 5% CO2 at 37° C.
Since PI3K/PIP3/Akt signaling plays a critical role in the inhibition of apoptosis (Datta S R et al. (1999) Genes Dev 13:2905-27), the possibility that PITs induce apoptosis was examined. […] Proapoptotic Bcl-2 family members Bax and Bak are important mediators of apoptosis. Wei M C et al. (2001) Science 292:727-30. […]

[3] = tested on: SV40-transformed mouse adult lung fibroblasts; assay: Viability of Akt1-expressing versus Akt1-3 triple knockout fibroblasts; type: cell-based
Source text: Shaughnessy J D (2008) Nature 454:172-3; Weinstein I G (2002) Science 297:63-4. Therefore, the possibility that PIT-1 may cause preferential cell death in the cells containing elevated PIP3 levels was examined. […] Li D M et al. (1998) Proc Natl Acad Sci USA 95:15406-11. […] Neshat M S et al. (2001) Proc Natl Acad Sci USA 98:10314-9.

[4] = target: R86A mutant of the PH domain (Homo sapiens (Human), UniProt P31749, R86A); assay: NMR HSQC binding analysis, mutant PH domain
R86A mutant of the PH domain, sequence (P31749 1-123 R86A): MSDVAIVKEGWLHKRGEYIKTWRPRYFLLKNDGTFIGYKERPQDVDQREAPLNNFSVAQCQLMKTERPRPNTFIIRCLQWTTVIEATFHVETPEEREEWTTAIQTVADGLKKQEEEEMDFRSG

eIF-1, sequence (P41567 whole entry, species assumed): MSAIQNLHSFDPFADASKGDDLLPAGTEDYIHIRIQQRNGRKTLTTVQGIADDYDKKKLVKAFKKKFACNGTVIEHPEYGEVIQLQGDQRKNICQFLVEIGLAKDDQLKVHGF
Bcl-xL, sequence (Q07817 whole entry, species assumed): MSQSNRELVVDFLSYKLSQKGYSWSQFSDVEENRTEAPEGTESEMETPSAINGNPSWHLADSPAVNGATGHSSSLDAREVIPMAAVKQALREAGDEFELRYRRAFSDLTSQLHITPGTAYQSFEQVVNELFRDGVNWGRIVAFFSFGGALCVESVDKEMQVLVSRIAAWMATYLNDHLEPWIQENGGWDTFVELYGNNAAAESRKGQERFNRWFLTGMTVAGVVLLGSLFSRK
PLC-δ PH domain, sequence (P51178 21-130): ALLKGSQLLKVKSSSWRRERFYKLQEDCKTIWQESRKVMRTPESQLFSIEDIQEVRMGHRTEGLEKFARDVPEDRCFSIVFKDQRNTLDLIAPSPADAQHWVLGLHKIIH

O=C(NC(=S)Nc1cc([N+](=O)[O-])cc(Cl)c1O)c1ccccc1 [PIT-1]
PI3K-PDK1-Akt signaling in SUM159 cells (PI3K-PDK1-Akt signaling): significantly suppressed PI3K-PDK1-Akt signaling
inhibition of interaction between PIP2 and PH domain of PLC-δ (PLC-δ PH domain): failed to inhibit
PDGF-induced membrane ruffling (SUM159 cells): efficiently inhibited
changes in HSQC spectra of Bcl-xL (Bcl-xL): did not elicit any changes
cell death in combination with glucose/glutamine deprivation [1]: dramatic induction of cell death
changes in HSQC spectra of eIF-1 (eIF-1): did not elicit any changes
killing of Bax/Bak double knockout compared with wild-type cells [2]: reduced in Bax/Bak double knockout cells
loss of viability in Akt1-expressing versus Akt1-3 triple knockout fibroblasts [3]: more pronounced (P<0.01)
effect on R86A mutant PH domain (HSQC) [4]: no effect
